Calls of active or inactive are those of the source. The calls are words filed in the database; no cut-off is given here.
Key:
Staphylococcus aureus [1] = assay: Antibacterial activity against Staphylococcus aureus ATCC33591 assessed as reduction in bacterial growth; type: functional
Staphylococcus aureus [2] = assay: Antibacterial activity against Staphylococcus aureus ATCC43300 assessed as reduction in bacterial growth; type: functional
[3] = Antiproliferative activity against rat H9c2 cells assessed as inhibition of cell growth measured after 72 hrs by CCK-8 method; type: toxicity, cell-based
[4] = Antiproliferative activity against human HCoEpiC cells assessed as inhibition of cell growth measured after 72 hrs by CCK-8 method; type: toxicity, cell-based
HCT-116 [5] = assay: Induction of ROS generation in human HCT-116 cells assessed as increase in intracellular ROS level measured after 48 hrs DCFH-DA staining based analysis; type: functional, cell-based
Cell membrane = assay: Induction of mitochondrial membrane potential loss in human HCT-116 cells assessed as increase in green fluorescence at high dose measured after 48 hrs by JC-1 staining based microscopy analysis; type: cell membranes
HCT-116 [6] = assay: Antiproliferative activity against human HCT-116 cells assessed reduction in clone formation measured after 48 hrs by crystal violet staining based analysis; type: functional, cell-based
HCT-116 [7] = assay: Induction of apoptosis in human HCT-116 cells assessed as apoptotic rate at medium dose measured after 48 hrs by annexin V-FITC/7-AAD based flow cytometry analysis relative to control; type: functional
HCT-116 [8] = assay: Induction of apoptosis in human HCT-116 cells assessed as cell death at 2 uM measured after 48 hrs by annexin V-FITC/7-AAD based flow cytometry analysis relative to control; type: functional
HCT-116 [9] = assay: Induction of apoptosis in human HCT-116 cells assessed as reduction in SDHB expression measured after 48 hrs by Western blot analysis; type: functional, cell-based; conditions: dose 0.5-2 µM
HCT-116 [10] = assay: Induction of apoptosis in human HCT-116 cells assessed as upregulation of bax expression at 0.5 to 2 uM measured after 48 hrs by Western blot analysis; type: functional, cell-based; conditions: dose 0.5-2 µM
HCT-116 [11] = assay: Induction of apoptosis in human HCT-116 cells assessed as downregulation of bcl-2 expression at 0.5 to 2 uM measured after 48 hrs by Western blot analysis; type: functional, cell-based; conditions: dose 0.5-2 µM
HCT-116 [12] = assay: Induction of cell cycle arrest in human HCT-116 cells assessed as increase in number of cells at G2 phase at 0.5 uM measured after 48 hrs by PI staining based flow cytometry analysis; type: functional
[13] = Acute toxicity in BALB/c mouse assessed as effect on liver at 50 mg/kg, iv administered as single dose measured upto 14 days by H and E staining based analysis; type: organism-based; conditions: in vivo, 336 h, time < 14 day
[14] = Acute toxicity in BALB/c mouse assessed as effect on lung at 50 mg/kg, iv administered as single dose measured upto 14 days by H and E staining based analysis; type: organism-based; conditions: in vivo, 336 h, time < 14 day
[15] = Acute toxicity in BALB/c mouse assessed as reduction in body weight at low dose iv measured upto 21 days relative to control; type: organism-based; design: scale not given: the % may be the effect or the level left; conditions: in vivo, 504 h, time < 21 day
[16] = Acute toxicity in BALB/c mouse assessed as effect on body weight at middle to high dose iv measured upto 21 days relative to control; type: organism-based; conditions: in vivo, 504 h, time < 21 day
[17] = Acute toxicity in BALB/c mouse assessed as increase in body weight at 5 mg/kg, iv measured upto 21 days relative to control; type: organism-based; conditions: in vivo, 504 h, time < 21 day
HCT-116 [18] = assay: Antitumor activity against human HCT-116 cells xenografted in BALB/c nude mouse model assessed as reduction in tumor volume at 2.5 mg/kg,iv administered twice weekly and measured upto 21 days relative to control; type: functional; design: scale not given: the % may be the effect or the level left; conditions: time <= 21 day
HCT-116 [19] = assay: Antitumor activity against human HCT-116 cells xenografted in BALB/c nude mouse model assessed as reduction in tumor weight at middle dose administered as iv twice weekly and measured upto 21 days; type: functional; conditions: time <= 21 day
HCT-116 [20] = assay: Antitumor activity against human HCT-116 cells xenografted in BALB/c nude mouse model assessed as decrease in Bcl-2 expression at upto 5 mg/kg, iv administered twice weekly by Western blot analysis; type: functional, organism-based
[21] = Cmax in Sprague-Dawley rat at 10 mg/kg, iv by LC-MS/MS analysis; type: ADME, organism-based; conditions: in vivo
[22] = AUC (0 to 12hrs) in Sprague-Dawley rat at 10 mg/kg, iv by LC-MS/MS analysis; type: ADME, organism-based; conditions: in vivo
[23] = Clearance in Sprague-Dawley rat at 10 mg/kg, iv by LC-MS/MS analysis; type: ADME, organism-based; conditions: in vivo
[24] = MRT (0 to 24 hrs) in Sprague-Dawley rat at 10 mg/kg, iv by LC-MS/MS analysis; type: ADME, organism-based; conditions: in vivo
[25] = Half life in Sprague-Dawley rat at 10 mg/kg, po by LC-MS/MS analysis; type: ADME, organism-based; conditions: in vivo
[26] = Metabolic stability in human liver microsomes assessed as half life at 1 uM measured upto 60 mins in presence of NADPH regenerating system by LC-MS/MS analysis; type: ADME, Microsome
[27] = Metabolic stability in rat liver microsomes assessed as half life at 1 uM measured upto 60 mins in presence of NADPH regenerating system by LC-MS/MS analysis; type: ADME, Microsome
[28] = Metabolic stability in human liver microsomes assessed as intrinsic clearance at 1 uM measured upto 60 mins in presence of NADPH regenerating system by LC-MS/MS analysis; type: ADME, Microsome; conditions: read-out: CLH
HCT-116 [29] = assay: Upregulation of ATF3 expression in human HCT-116 cells measured after 48 hrs by Western blot analysis; type: functional, cell-based
HCT-116 [30] = assay: Upregulation of DDIT3 expression in human HCT-116 cells measured after 48 hrs by Western blot analysis; type: functional, cell-based
HCT-116 [31] = assay: Upregulation of DDIT4 expression in human HCT-116 cells measured after 48 hrs by Western blot analysis; type: functional, cell-based
HCT-116 [32] = assay: Upregulation of JUN expression in human HCT-116 cells measured after 48 hrs by Western blot analysis; type: functional, cell-based
HCT-116 [33] = assay: Upregulation of ID1 expression in human HCT-116 cells measured after 48 hrs by Western blot analysis; type: functional, cell-based
HCT-116 [34] = assay: Upregulation of ASNS expression in human HCT-116 cells measured after 48 hrs by Western blot analysis; type: functional, cell-based
HCT-116 [35] = assay: Upregulation of CHAC1 expression in human HCT-116 cells measured after 48 hrs by Western blot analysis; type: functional, cell-based
HCT-116 [36] = assay: Upregulation of GCLC expression in human HCT-116 cells measured after 48 hrs by Western blot analysis; type: functional, cell-based
HCT-116 [37] = assay: Effect on […] expression in ClpP knockdown human HCT-116 cells at 2 uM measured after 48 hrs by Western blot analysis; type: functional, cell-based
HCT-116 [38] = assay: Effect on DDIT3 expression in ClpP knockdown human HCT-116 cells at 2 uM measured after 48 hrs by Western blot analysis; type: functional, cell-based
HCT-116 [39] = assay: Effect on DDIT4 expression in ClpP knockdown human HCT-116 cells at 2 uM measured after 48 hrs by Western blot analysis; type: functional, cell-based
HCT-116 [40] = assay: cells; conditions: Homo sapiens, HCT-116, 72 h
Description: Antiproliferative activity against human HCT-116 cells assessed as inhibition of cell growth measured after 72 hrs by CCK-8 method

SW480 = assay: cells; conditions: Homo sapiens, SW480, 72 h
Description: Antiproliferative activity against human SW480 cells assessed as inhibition of cell growth measured after 72 hrs by CCK-8 method

DLD-1 = assay: cells; conditions: Homo sapiens, DLD-1, 72 h
Description: Antiproliferative activity against human DLD-1 cells assessed as inhibition of cell growth measured after 72 hrs by CCK-8 method

Work on `N#Cc1cccc(CN2CCC=C(C(=O)NCc3ccc(C(F)(F)F)cc3)C2)c1` yielded an MIC (Staphylococcus aureus [1]) greater than 128 µg/mL, an MIC (Staphylococcus aureus [2]) greater than 128 µg/mL and an IC50 at 72 h [3] of 60.6 µM. The IC50 at 72 h [4] was 75.2 µM, the Activity (HCT-116 [5]) was “Active” and the Activity (Cell membrane) was “Active”. The Activity (HCT-116 [6]) was “Dose-Dependent Effect”, the Activity (HCT-116 [7]) was 46% and the Activity (HCT-116 [8]) was 60%. The Activity (HCT-116 [9]) was “Dose-Dependent Effect”, the Activity (HCT-116 [10]) was “Active” and the Activity (HCT-116 [11]) was “Active”. The Activity (HCT-116 [12]) was 20%, the Activity [13] was “Non-Toxic” and the Activity [14] was “Non-Toxic”. For the same compound, the Activity [15] was 10%, the Activity [16] was “Non-Toxic” and the Activity [17] was “Toxic”. For the same compound, the Activity (HCT-116 [18]) was 70%, the Activity (HCT-116 [19]) was 250 mg and the Activity (HCT-116 [20]) was “Active”. It also gave a Cmax [21] of 966 ng/mL, an AUC [22] of 1433.6 ng·h/mL and a CL [23] of 2.172 mL/min/kg. The MRT last [24] was 3.1 h, the half-life [25] was 4.7 h and the half-life at 1 µM [26] was 6.1 min. The half-life at 1 µM [27] was 0.3 h, the CLint scaled at 1 µM [28] was 206 mL/min/kg and the Activity (HCT-116 [29]) was “Active”. For the same compound, the Activity (HCT-116 [30]) was “Active”, the Activity (HCT-116 [31]) was “Active” and the Activity (HCT-116 [32]) was “Active”. The Activity (HCT-116 [33]) was “Active”, the Activity (HCT-116 [34]) was “Active” and the Activity (HCT-116 [35]) was “Active”. The Activity (HCT-116 [36]) was “Active”, the Activity (HCT-116 [37]) was “inactive” and the Activity (HCT-116 [38]) was “inactive”. For the same compound, the Activity (HCT-116 [39]) was “inactive”, the IC50 (HCT-116 [40]) was 1 µM and the IC50 (SW480) was 5.4 µM. It also gave an IC50 (DLD-1) of 3.1 µM.
